Reference: patent publication US20220289794A1, “SYNTHETIC ANTIMICROBIAL PEPTIDES” (priority 2019, published 2022)

Experiments:
[1] = test system: B. subtilis (ATCC-6633); test: Broad-spectrum activity against Gram-Positive bacteria (MIC); assay type: cell-based; design: unit not given here
[2] = test system: E. coli (ATCC BAA-2452); test: Broad-spectrum activity against Gram-Negative bacteria (MIC); assay type: cell-based; conditions: Table 16, Gram-negative panel
[3] = test system: B. cereus (ATCC-13061); test: Broad-spectrum activity against Gram-Positive bacteria (MIC); assay type: cell-based; design: unit not given here
[4] = test system: A. baumannii (ATCC BAA-1605); test: Broad-spectrum activity against Gram-Negative bacteria (MIC); assay type: cell-based; conditions: Table 16, Gram-negative panel
[5] = test system: P. aeruginosa (ATCC 10145); test: as above; assay type: cell-based; conditions: Table 16, Gram-negative panel
[6] = test system: P. aeruginosa (ATCC BAA-1744); test: as above; assay type: cell-based; conditions: Table 16, Gram-negative panel
[7] = test system: Methicillin-resistant Staphylococcus aureus MRSA (ATCC BAA-1556); conditions: MRSA ATCC BAA-1556
[8] = test system: S. aureus ATCC 29213; conditions: S. aureus ATCC 29213
[9] = test system: Pseudomonas aeruginosa (ATCC 27883); conditions: P. aeruginosa ATCC 27883
[10] = test system: Escherichia coli (ATCC 25922); conditions: E. coli ATCC 25922
[11] = test system: Klebsiella pneumoniae (ATCC BAA-1705); conditions: Table 16, Gram-negative panel
[12] = test system: Enterococcus faecium ATCC 27270; conditions: E. faecium ATCC 27270
[13] = test system: Enterococcus faecium ATCC 700221; conditions: E. faecium ATCC 700221
[14] = test system: Klebsiella pneumoniae ATCC 13883; conditions: Table 16, Gram-negative panel
[15] = test system: Enterococcus faecalis ATCC 29212; conditions: E. faecalis ATCC 29212
[16] = test system: Enterococcus faecalis ATCC 51575; conditions: E. faecalis ATCC 51575
[17] = test system: Streptococcus pneumoniae ATCC 49619; conditions: S. pneumoniae ATCC 49619
[18] = test system: Streptococcus pneumoniae ATCC 51938; conditions: S. pneumoniae ATCC 51938

Substance: c[arg-arg-arg-arg-dip-trp-dip] [IFX-101]
- Broad-spectrum activity B. subtilis (ATCC-6633) [1]: 1.5
- MIC E. coli (ATCC BAA-2452) [2]: 25 µg/mL
- Broad-spectrum activity B. cereus (ATCC-13061) [3]: 6.2
- MIC A. baumannii (ATCC BAA-1605) [4]: 12.5 µg/mL
- MIC P. aeruginosa (ATCC 10145) [5]: 50 µg/mL
- MIC P. aeruginosa (ATCC BAA-1744) [6]: 25 µg/mL
- MIC MRSA ATCC BAA-1556 [7]: 3.1 µg/mL
- MIC S. aureus ATCC 29213 [8]: 3.1 µg/mL
- MIC P. aeruginosa ATCC 27883 [9]: 25 µg/mL
- MIC E. coli ATCC 25922 [10]: 12.5 µg/mL
- MIC K. pneumonia (ATCC BAA-1705) [11]: 25 µg/mL
- Broad-spectrum activity E. faecium (ATCC 27270) [12]: 3.1
- Broad-spectrum activity E. faecium (ATCC 700221) [13]: 12.5
- MIC K. pneumonia (ATCC 13883) [14]: > 50 µg/mL
- Broad-spectrum activity E. faecalis (ATCC 29212) [15]: 12.5
- Broad-spectrum activity E. faecalis (ATCC 51575) [16]: 12.5
- Broad-spectrum activity S. pneumoniae (ATCC 49619) [17]: 50
- Broad-spectrum activity S. pneumoniae (ATCC 51938) [18]: 12.5

Substance: c[Arg-Arg-Arg-Arg-Dip-Trp-dip] [IFX-088]
- Broad-spectrum activity B. subtilis (ATCC-6633) [1]: 1.5
- MIC E. coli (ATCC BAA-2452) [2]: 12.5 µg/mL
- Broad-spectrum activity B. cereus (ATCC-13061) [3]: 6.2
- MIC A. baumannii (ATCC BAA-1605) [4]: 12.5 µg/mL
- MIC P. aeruginosa (ATCC 10145) [5]: 25 µg/mL
- MIC P. aeruginosa (ATCC BAA-1744) [6]: 50 µg/mL
- MIC MRSA ATCC BAA-1556 [7]: 3.1 µg/mL
- MIC S. aureus ATCC 29213 [8]: 3.1 µg/mL
- MIC P. aeruginosa ATCC 27883 [9]: 12.5 µg/mL
- MIC E. coli ATCC 25922 [10]: 12.5 µg/mL
- MIC K. pneumonia (ATCC BAA-1705) [11]: 25 µg/mL
- Broad-spectrum activity E. faecium (ATCC 27270) [12]: 3.1
- Broad-spectrum activity E. faecium (ATCC 700221) [13]: 12.5
- MIC K. pneumonia (ATCC 13883) [14]: 50 µg/mL
- Broad-spectrum activity E. faecalis (ATCC 29212) [15]: 12.5
- Broad-spectrum activity E. faecalis (ATCC 51575) [16]: 12.5
- Broad-spectrum activity S. pneumoniae (ATCC 49619) [17]: 25
- Broad-spectrum activity S. pneumoniae (ATCC 51938) [18]: 12.5

Substance: c[arg-Arg-Arg-Arg-Dip-Dip-Dip] [IFX-066]
- Broad-spectrum activity B. subtilis (ATCC-6633) [1]: 1.5
- MIC E. coli (ATCC BAA-2452) [2]: 12.5 µg/mL
- Broad-spectrum activity B. cereus (ATCC-13061) [3]: 6.2
- MIC A. baumannii (ATCC BAA-1605) [4]: 6.2 µg/mL
- MIC P. aeruginosa (ATCC 10145) [5]: 25 µg/mL
- MIC P. aeruginosa (ATCC BAA-1744) [6]: 12.5 µg/mL
- MIC MRSA ATCC BAA-1556 [7]: 1.5 µg/mL
- MIC S. aureus ATCC 29213 [8]: 3.1 µg/mL
- MIC P. aeruginosa ATCC 27883 [9]: 12.5 µg/mL
- MIC E. coli ATCC 25922 [10]: 12.5 µg/mL
- MIC K. pneumonia (ATCC BAA-1705) [11]: 12.5 µg/mL
- Broad-spectrum activity E. faecium (ATCC 27270) [12]: 3.1
- Broad-spectrum activity E. faecium (ATCC 700221) [13]: 3.1
- MIC K. pneumonia (ATCC 13883) [14]: 50 µg/mL
- Broad-spectrum activity E. faecalis (ATCC 29212) [15]: 6.2
- Broad-spectrum activity E. faecalis (ATCC 51575) [16]: 12.5
- Broad-spectrum activity S. pneumoniae (ATCC 49619) [17]: 25
- Broad-spectrum activity S. pneumoniae (ATCC 51938) [18]: 12.5

Substance: c[arg-Arg-arg-Arg-dip-Trp-dip] [IFX-096]
- Broad-spectrum activity B. subtilis (ATCC-6633) [1]: 3.1
- MIC E. coli (ATCC BAA-2452) [2]: 12.5 µg/mL
- Broad-spectrum activity B. cereus (ATCC-13061) [3]: 6.2
- MIC A. baumannii (ATCC BAA-1605) [4]: 25 µg/mL
- MIC P. aeruginosa (ATCC 10145) [5]: 50 µg/mL
- MIC P. aeruginosa (ATCC BAA-1744) [6]: 50 µg/mL
- MIC MRSA ATCC BAA-1556 [7]: 3.1 µg/mL
- MIC S. aureus ATCC 29213 [8]: 3.1 µg/mL
- MIC P. aeruginosa ATCC 27883 [9]: 6.2 µg/mL
- MIC E. coli ATCC 25922 [10]: 6.2 µg/mL
- MIC K. pneumonia (ATCC BAA-1705) [11]: 25 µg/mL
- Broad-spectrum activity E. faecium (ATCC 27270) [12]: 3.1
- Broad-spectrum activity E. faecium (ATCC 700221) [13]: 6.2
- MIC K. pneumonia (ATCC 13883) [14]: 50 µg/mL
- Broad-spectrum activity E. faecalis (ATCC 29212) [15]: 12.5
- Broad-spectrum activity E. faecalis (ATCC 51575) [16]: 12.5
- Broad-spectrum activity S. pneumoniae (ATCC 49619) [17]: 25
- Broad-spectrum activity S. pneumoniae (ATCC 51938) [18]: 25
